{"source": "patent US20140303105A1", "about": "“Primycin and components thereof for use in the treatment or prevention of infections caused by specific pathogens” (PANNONPHARMA GYÓGYSZERGYÁRTÓ ZRT., priority 2011, published 2014)", "key": {"Streptococcus mitis": {"system": "Streptococcus mitis", "details": "by Bryskier; cited from earlier work"}, "[1]": {"system": "S. aureus and coagulase-negative staphylococci", "details": "Bryskier 2005; cited from earlier work"}, "Gram-negative species": {"system": "Gram-negative species", "details": "crystalline primycin and amorphous predecessor; Uri and Actor 1979; cited from earlier work"}, "S. pyogenes": {"system": "S. pyogenes", "details": "by Bryskier; cited from earlier work"}, "S. aureus ATCC 25923": {"system": "S. aureus ATCC 25923", "details": "by Bryskier; cited from earlier work"}, "Enterobacter cloacae": {"system": "Enterobacter cloacae", "details": "by Bryskier; cited from earlier work"}, "Staphylococcus capitis": {"system": "Staphylococcus capitis", "details": "cited from earlier work"}, "[2]": {"system": "Streptococcus pneumoniae, penicillin susceptible", "experiment": "Standard microdilution susceptibility test, clinical isolates", "type": "cell-based", "details": "for MIC: single isolate"}, "Micrococcus spp.": {"system": "Micrococcus spp.", "details": "cited from earlier work"}, "[3]": {"system": "Enterococcus hirae ATCC 8043", "experiment": "Microdilution MIC, ATCC reference strains", "type": "cell-based", "description": "(§1) Identification and characterization of resistance patterns of these bacteria were performed by standard methods.\n(§2) When forming the test groups we attached great importance to the increasing incidence of drug-resistant microbes causing therapeutic problems. Most important of them are methicillin-resistant Staphylococcus aureus (MRSA), methicillin-resistant coagulase-negative Staphylococcus spp. (MRCoNS), penicillin-resistant Streptococcus pneumoniae (pneumococcus), vancomycin-resistant Enterococcus spp. (VRE). Pneumococcus isolates represented various serotypes, VRE isolates belonged to various species. Moreover, vancomycin-resistance of VRE isolates was based on different genetic backgrounds. Antibiotic-resistant strains were also represented among international reference strains, for example methicillin-resistant Staphylococcus aureus ATCC 43300 (MRSA), Staphylococcus aureus with decreased vancomycin susceptibility ATCC 700698 and 700699 (vancomycin intermediate Staphylococcus aureus—VISA), mupirocin-resistant Staphylococcus aureus ATCC BAA1708 and vancomycin-resistant Enterococcus faecalis ATCC 51299 (VRE).\n(§3) Susceptibility tests were performed according to the standard microdilution method (NCCLS (CLSI) M7-A7).\n(§4) The lowest concentration at which no bacterial growth was observed after the incubation period is the Minimal Inhibitory Concentration (MIC). The MIC value is inversely proportional to the antimicrobial efficacy. MIC values of antimicrobial agents can differ by species or even by bacterial strains within species."}, "[4]": {"system": "Staphylococcus aureus ATCC 700699 (VISA)", "experiment": "Microdilution MIC, ATCC reference strains", "type": "cell-based", "description": "as §1, §2, §3, §4"}, "[5]": {"system": "Enterococcus faecalis ATCC 51299 (VRE)", "experiment": "Microdilution MIC, ATCC reference strains", "type": "cell-based", "description": "as §1, §2, §3, §4"}, "[6]": {"system": "Enterococcus faecalis ATCC 29212", "experiment": "Microdilution MIC, ATCC reference strains", "type": "cell-based", "description": "as §1, §2, §3, §4"}, "Streptococcus ATCC 49619": {"system": "Streptococcus ATCC 49619", "experiment": "Microdilution MIC, ATCC reference strains", "type": "cell-based", "description": "as §1, §2, §3, §4"}, "[7]": {"system": "Staphylococcus aureus ATCC 25923", "experiment": "Microdilution MIC, ATCC reference strains", "type": "cell-based", "description": "as §1, §2, §3, §4"}, "[8]": {"system": "Staphylococcus aureus ATCC 700698 (VISA)", "experiment": "Microdilution MIC, ATCC reference strains", "type": "cell-based", "description": "as §1, §2, §3, §4"}, "[9]": {"system": "Staphylococcus aureus ATCC 29213", "experiment": "Microdilution MIC, ATCC reference strains", "type": "cell-based", "description": "as §1, §2, §3, §4"}, "[10]": {"system": "Staphylococcus aureus ATCC 43300 (MRSA)", "experiment": "Microdilution MIC, ATCC reference strains", "type": "cell-based", "description": "as §1, §2, §3, §4"}, "[11]": {"system": "Streptococcus simulans 7866", "details": "cited from earlier work"}, "[12]": {"system": "Staphylococcus aureus ATCC 25923", "details": "cited from earlier work"}, "[13]": {"system": "erythromycin-sensitive Staphylococcus spp. strains", "details": "collection of 279 strains; cited from earlier work"}, "[14]": {"system": "Coagulase-negative Staphylococus sp., methicillin resistant", "experiment": "Standard microdilution susceptibility test, clinical isolates", "type": "cell-based", "details": "10 clinical isolates"}, "Escherichia coli B 1218": {"system": "Escherichia coli B 1218", "details": "cited from earlier work"}, "[15]": {"system": "Staphylococcus epidermidis 7586", "details": "cited from earlier work"}, "[16]": {"system": "Enterococcus sp., vancomycin susceptible", "experiment": "Standard microdilution susceptibility test, clinical isolates", "type": "cell-based", "details": "20 clinical isolates"}, "[17]": {"system": "Bacillus subtilis ATCC 6633", "details": "cited from earlier work"}}, "data": [{"substance": "Primycin", "values": [{"measurement": "MIC", "setting": "Streptococcus mitis", "result": 50, "unit": "µg/mL"}, {"measurement": "efficacy", "setting": "[1]", "result": "effective"}, {"measurement": "efficacy against Gram-negative species", "setting": "Gram-negative species", "result": "ineffective"}, {"measurement": "MIC", "setting": "S. pyogenes", "result": 1.56, "unit": "µg/mL"}, {"measurement": "MIC", "setting": "S. aureus ATCC 25923", "result": 25, "unit": "µg/mL"}, {"measurement": "MIC", "setting": "Enterobacter cloacae", "result": 50, "unit": "µg/mL"}, {"measurement": "MIC", "setting": "Staphylococcus capitis", "result": 0.78, "unit": "µg/mL"}, {"measurement": "MIC 50%", "setting": "[2]; 10 clinical isolates", "result": 0.5, "unit": "µg/mL"}, {"measurement": "MIC 90%", "setting": "[2]; 10 clinical isolates", "result": 0.5, "unit": "µg/mL"}, {"measurement": "MIC Range", "setting": "[2]; 10 clinical isolates", "result": "0.25 to 1", "unit": "µg/mL"}, {"measurement": "Ratio of Sensitive/Total", "setting": "[2]; 10 clinical isolates", "result": "10/10"}, {"measurement": "MIC", "setting": "[2]; serotype 3", "result": 0.5, "unit": "µg/mL"}, {"measurement": "MIC", "setting": "[2]; serotype 4", "result": 0.5, "unit": "µg/mL"}, {"measurement": "MIC", "setting": "[2]; serotype 7F", "result": 0.5, "unit": "µg/mL"}, {"measurement": "MIC", "setting": "[2]; serotype 8", "result": 0.5, "unit": "µg/mL"}, {"measurement": "MIC", "setting": "[2]; serotype 9(V)", "result": 0.5, "unit": "µg/mL"}, {"measurement": "MIC", "setting": "[2]; serotype 11(A)", "result": 0.5, "unit": "µg/mL"}, {"measurement": "MIC", "setting": "[2]; serotype 19F", "result": 0.5, "unit": "µg/mL"}, {"measurement": "MIC", "setting": "[2]; serotype 23(F)", "result": 0.25, "unit": "µg/mL"}, {"measurement": "MIC", "setting": "Micrococcus spp.", "result": 0.78, "unit": "µg/mL"}, {"measurement": "Primycin MIC", "setting": "[3]", "result": 0.5, "unit": "µg/mL"}, {"measurement": "Primycin MIC", "setting": "[4]", "result": 0.125, "unit": "µg/mL"}, {"measurement": "Primycin MIC", "setting": "[5]", "result": 1, "unit": "µg/mL"}, {"measurement": "Primycin MIC", "setting": "[6]", "result": 0.5, "unit": "µg/mL"}, {"measurement": "Primycin MIC", "setting": "Streptococcus ATCC 49619", "result": 0.5, "unit": "µg/mL"}, {"measurement": "Primycin MIC", "setting": "[7]", "result": 0.06, "unit": "µg/mL"}, {"measurement": "Primycin MIC", "setting": "[8]", "result": 0.06, "unit": "µg/mL"}, {"measurement": "Primycin MIC", "setting": "[9]", "result": 0.06, "unit": "µg/mL"}, {"measurement": "Primycin MIC", "setting": "[10]", "result": 0.06, "unit": "µg/mL"}, {"measurement": "MIC", "setting": "[11]", "result": 0.39, "unit": "µg/mL"}, {"measurement": "MIC", "setting": "[12]", "result": 25.0, "unit": "µg/mL"}, {"measurement": "share of strains primycin-resistant (MIC≧5 mg/L)", "setting": "[13]", "result": 1, "unit": "%"}, {"measurement": "MIC 50%", "setting": "[14]", "result": 0.06, "unit": "µg/mL"}, {"measurement": "MIC 90%", "setting": "[14]", "result": 0.06, "unit": "µg/mL"}, {"measurement": "MIC Range", "setting": "[14]", "result": "0.03 to 0.06", "unit": "µg/mL"}, {"measurement": "Ratio of Sensitive/Total", "setting": "[14]", "result": "10/10"}, {"measurement": "MIC", "setting": "Escherichia coli B 1218", "result": 50.0, "unit": "µg/mL"}, {"measurement": "MIC", "setting": "[15]", "result": 0.78, "unit": "µg/mL"}, {"measurement": "MIC 50%", "setting": "[16]", "result": 0.5, "unit": "µg/mL"}, {"measurement": "MIC 90%", "setting": "[16]", "result": 0.5, "unit": "µg/mL"}, {"measurement": "MIC Range", "setting": "[16]", "result": "0.5 to 1", "unit": "µg/mL"}, {"measurement": "Ratio of Sensitive/Total", "setting": "[16]", "result": "20/20"}, {"measurement": "MIC", "setting": "[17]", "result": 0.39, "unit": "µg/mL"}]}]}
